Measurements taken from EP4817687A2, “NUCLEOTIDE AND NUCLEOSIDE THERAPEUTIC COMPOSITIONS AND USES RELATED THERETO” (Emory University, priority 2013, dated 2015).

target: HCV NS5B polymerase (Hepatitis C virus genotype 1b, UniProt Q9WMX2); test: HCV NS5B pol assay (NS5B RNA-dependent RNA polymerase reaction, filter binding); format: biochemical; conditions: 1 h; read-out: HCV NS5B pol assay (^32P-GTP) IC25

Compared with `C[C@@]1(F)[C@H](O)[C@@H](COP(=O)(O)OP(=O)(O)OP(=O)(O)O)O[C@H]1n1ccc(=O)[nH]c1=O`, `C[C@@]1(O)[C@H](O)[C@@H](COP(=O)(O)OP(=O)(O)OP(=O)(O)O)O[C@H]1n1ccc(=O)[nH]c1=[Se]` is 13-fold higher in IC25: 0.52 µM for the first, 6.82 µM for the second.

same assay, conditions: 1 h; read-out: HCV NS5B pol assay (^32P-GTP) IC95

Compared with `C[C@@]1(F)[C@H](O)[C@@H](COP(=O)(O)OP(=O)(O)OP(=O)(O)O)O[C@H]1n1ccc(=O)[nH]c1=O`, `C[C@@]1(O)[C@H](O)[C@@H](COP(=O)(O)OP(=O)(O)OP(=O)(O)O)O[C@H]1n1ccc(=O)[nH]c1=[Se]` is higher in IC95: 9.91 µM for the first, greater than 100 µM for the second.

tested on: not listed separately; test: Cytotoxicity panel (CC50), Huh-7; format: cell-based, human; conditions: human, huh-7 cells

First: O=c1[nH]c(=S)ccn1[C@@H]1O[C@H](CO)[C@@H](O)[C@H]1O
Second: C[C@@]1(O)[C@H](O)[C@@H](CO)O[C@H]1n1ccc(=S)[nH]c1=O
The CC50 of the first is lower: 60 µM for the first, greater than 100 µM for the second.

`C[C@@]1(F)[C@H](O)[C@@H](CO)O[C@H]1n1ccc(=S)[nH]c1=O` and `C[C@@]1(O)[C@H](O)[C@@H](CO)O[C@H]1n1ccc(=O)[nH]c1=S` [drawing 452] cannot be ordered by CC50: greater than 400 µM for the first, greater than 100 µM for the second.

`CC(C)OC(=O)[C@H](C)NP(=O)(OC[C@H]1O[C@@H](n2ccc(=S)[nH]c2=O)[C@](C)(F)[C@@H]1O)Oc1ccccc1` (stereo partly drawn) and `CC(C)OC(=O)[C@H](C)N[P@@](=O)(OC[C@H]1O[C@@H](n2ccc(=O)[nH]c2=O)[C@](C)(F)[C@@H]1O)Oc1ccccc1` cannot be ordered by CC50: greater than 300 µM for the first, greater than 400 µM for the second.

`CC(C)OC(=O)[C@H](C)NP(=O)(OC[C@H]1O[C@@H](n2ccc(=O)[nH]c2=[Se])[C@](C)(O)[C@@H]1O)Oc1ccccc1` (stereo partly drawn) and `CC(C)OC(=O)[C@H](C)NP(=O)(OC[C@H]1O[C@@H](n2ccc(=O)[nH]c2=S)[C@](C)(O)[C@@H]1O)Oc1ccccc1` (stereo partly drawn) [drawing 453] cannot be ordered by CC50: greater than 100 µM for the first, greater than 400 µM for the second.

`C[C@H](NP(=O)(O)OC[C@H]1O[C@@H](n2ccc(=O)[nH]c2=S)[C@](C)(O)[C@@H]1O)C(=O)O` and `C[C@@]1(O)[C@H](O)[C@@H](COP(=O)(O)O)O[C@H]1n1ccc(=O)[nH]c1=S` cannot be ordered by CC50: greater than 400 µM for the first, greater than 400 µM for the second.

`CC(C)OC(=O)[C@H](C)NP(=O)(OC[C@H]1O[C@@H](n2ccc(=S)[nH]c2=O)[C@](C)(O)[C@@H]1O)Oc1ccccc1` (stereo partly drawn) [drawing 455] and `CC(C)OC(=O)[C@H](C)NP(=O)(OC[C@H]1O[C@@H](n2ccc(=O)[nH]c2=S)[C@H](O)[C@@H]1O)Oc1ccccc1` (stereo partly drawn) [drawing 463] cannot be ordered by CC50: greater than 400 µM for the first, greater than 400 µM for the second.

tested on: Huh-7; test: Cytotoxicity panel (CC50), Huh-7; format: cell-based, human; conditions: Huh-7

Compared with `CC(C)OC(=O)[C@H](C)NP(=O)(OC[C@H]1O[C@@H](n2ccc(=O)[nH]c2=S)[C@H](O)[C@@H]1O)Oc1ccccc1` (stereo partly drawn) [drawing 451], `CC(C)OC(=O)[C@H](C)NP(=O)(OC[C@H]1O[C@@H](n2ccc(=S)[nH]c2=O)[C@H](O)[C@@H]1O)Oc1ccccc1` (stereo partly drawn) [drawing 462] is lower in CC50: greater than 400 µM for the first, 369 µM for the second.

tested on: not listed separately; test: Cytotoxicity panel (CC50), HepG2; format: cell-based; conditions: human, hepg2 cells

`C[C@@]1(O)[C@H](O)[C@@H](CO)O[C@H]1n1ccc(=S)[nH]c1=O` and `C[C@@]1(F)[C@H](O)[C@@H](CO)O[C@H]1n1ccc(=S)[nH]c1=O` cannot be ordered by CC50: greater than 400 µM for the first, greater than 400 µM for the second.

`CC(C)OC(=O)[C@H](C)NP(=O)(OC[C@H]1O[C@@H](n2ccc(=O)[nH]c2=[Se])[C@](C)(O)[C@@H]1O)Oc1ccccc1` (stereo partly drawn) and `CC(C)OC(=O)[C@H](C)NP(=O)(OC[C@H]1O[C@@H](n2ccc(=O)[nH]c2=S)[C@](C)(O)[C@@H]1O)Oc1ccccc1` (stereo partly drawn) [drawing 453] cannot be ordered by CC50: greater than 400 µM for the first, greater than 400 µM for the second.

`CC(C)OC(=O)[C@H](C)N[P@@](=O)(OC[C@H]1O[C@@H](n2ccc(=O)[nH]c2=O)[C@](C)(F)[C@@H]1O)Oc1ccccc1` and `CC(C)OC(=O)[C@H](C)NP(=O)(OC[C@H]1O[C@@H](n2ccc(=S)[nH]c2=O)[C@](C)(O)[C@@H]1O)Oc1ccccc1` (stereo partly drawn) [drawing 455] cannot be ordered by CC50: greater than 400 µM for the first, greater than 400 µM for the second.

`C[C@H](NP(=O)(O)OC[C@H]1O[C@@H](n2ccc(=O)[nH]c2=S)[C@](C)(O)[C@@H]1O)C(=O)O` and `C[C@@]1(O)[C@H](O)[C@@H](COP(=O)(O)O)O[C@H]1n1ccc(=O)[nH]c1=S` cannot be ordered by CC50: greater than 400 µM for the first, greater than 400 µM for the second.

`C[C@@]1(O)[C@H](O)[C@@H](CO)O[C@H]1n1ccc(=O)[nH]c1=S` [drawing 452] and `CC(C)OC(=O)[C@H](C)NP(=O)(OC[C@H]1O[C@@H](n2ccc(=O)[nH]c2=S)[C@H](O)[C@@H]1O)Oc1ccccc1` (stereo partly drawn) [drawing 463] cannot be ordered by CC50: greater than 400 µM for the first, greater than 400 µM for the second.

Molecule `CC(C)OC(=O)[C@H](C)NP(=O)(OC[C@H]1O[C@@H](n2ccc(=S)[nH]c2=O)[C@H](O)[C@@H]1O)Oc1ccccc1` (stereo partly drawn) [drawing 462] has a CC50 greater than 400 µM.

tested on: not listed separately; test: Cytotoxicity panel (CC50), BxPC3; format: cell-based; conditions: human, bxpc3 cells

`C[C@@]1(O)[C@H](O)[C@@H](CO)O[C@H]1n1ccc(=S)[nH]c1=O` and `C[C@@]1(O)[C@H](O)[C@@H](CO)O[C@H]1n1ccc(=O)[nH]c1=S` [drawing 452] cannot be ordered by CC50: greater than 100 µM for the first, greater than 100 µM for the second.

`CC(C)OC(=O)[C@H](C)NP(=O)(OC[C@H]1O[C@@H](n2ccc(=S)[nH]c2=O)[C@](C)(F)[C@@H]1O)Oc1ccccc1` (stereo partly drawn) and `CC(C)OC(=O)[C@H](C)NP(=O)(OC[C@H]1O[C@@H](n2ccc(=S)[nH]c2=O)[C@](C)(O)[C@@H]1O)Oc1ccccc1` (stereo partly drawn) [drawing 455] cannot be ordered by CC50: greater than 300 µM for the first, greater than 300 µM for the second.

`CC(C)OC(=O)[C@H](C)NP(=O)(OC[C@H]1O[C@@H](n2ccc(=O)[nH]c2=[Se])[C@](C)(O)[C@@H]1O)Oc1ccccc1` (stereo partly drawn) and `CC(C)OC(=O)[C@H](C)NP(=O)(OC[C@H]1O[C@@H](n2ccc(=O)[nH]c2=S)[C@](C)(O)[C@@H]1O)Oc1ccccc1` (stereo partly drawn) [drawing 453] cannot be ordered by CC50: greater than 400 µM for the first, greater than 300 µM for the second.

tested on: not listed separately; test: Cytotoxicity panel (CC50), CEM; format: cell-based; conditions: human, cem cells

`C[C@@]1(O)[C@H](O)[C@@H](CO)O[C@H]1n1ccc(=S)[nH]c1=O` and `C[C@@]1(F)[C@H](O)[C@@H](CO)O[C@H]1n1ccc(=S)[nH]c1=O` cannot be ordered by CC50: greater than 400 µM for the first, greater than 400 µM for the second.

`CC(C)OC(=O)[C@H](C)N[P@@](=O)(OC[C@H]1O[C@@H](n2ccc(=O)[nH]c2=O)[C@](C)(F)[C@@H]1O)Oc1ccccc1` and `CC(C)OC(=O)[C@H](C)N[P@](=O)(OC[C@H]1O[C@@H](n2ccc(=O)[nH]c2=O)[C@](C)(F)[C@@H]1O)Oc1ccccc1` [drawing 460] cannot be ordered by CC50: greater than 400 µM for the first, greater than 400 µM for the second.

`C[C@H](NP(=O)(O)OC[C@H]1O[C@@H](n2ccc(=O)[nH]c2=S)[C@](C)(O)[C@@H]1O)C(=O)O` and `C[C@@]1(O)[C@H](O)[C@@H](COP(=O)(O)O)O[C@H]1n1ccc(=O)[nH]c1=S` cannot be ordered by CC50: greater than 400 µM for the first, greater than 400 µM for the second.

`C[C@@]1(O)[C@H](O)[C@@H](CO)O[C@H]1n1ccc(=O)[nH]c1=S` [drawing 452] and `CC(C)OC(=O)[C@H](C)NP(=O)(OC[C@H]1O[C@@H](n2ccc(=O)[nH]c2=S)[C@](C)(O)[C@@H]1O)Oc1ccccc1` (stereo partly drawn) [drawing 453] cannot be ordered by CC50: greater than 200 µM for the first, greater than 300 µM for the second.

Compared with `CC(C)OC(=O)[C@H](C)NP(=O)(OC[C@H]1O[C@@H](n2ccc(=S)[nH]c2=O)[C@](C)(O)[C@@H]1O)Oc1ccccc1` (stereo partly drawn) [drawing 455], `CC(C)OC(=O)[C@H](C)NP(=O)(OC[C@H]1O[C@@H](n2ccc(=S)[nH]c2=O)[C@H](O)[C@@H]1O)Oc1ccccc1` (stereo partly drawn) [drawing 462] is higher in CC50: 169 µM for the first, greater than 400 µM for the second.

With `CC(C)OC(=O)[C@H](C)NP(=O)(OC[C@H]1O[C@@H](n2ccc(=O)[nH]c2=S)[C@H](O)[C@@H]1O)Oc1ccccc1` (stereo partly drawn) [drawing 463] the CC50 was greater than 400 µM.

tested on: not listed separately; test: Cytotoxicity panel (CC50), A204; format: cell-based; conditions: human, a204 cells

`CC(C)OC(=O)[C@H](C)NP(=O)(OC[C@H]1O[C@@H](n2ccc(=S)[nH]c2=O)[C@](C)(F)[C@@H]1O)Oc1ccccc1` (stereo partly drawn) and `CC(C)OC(=O)[C@H](C)NP(=O)(OC[C@H]1O[C@@H](n2ccc(=S)[nH]c2=O)[C@](C)(O)[C@@H]1O)Oc1ccccc1` (stereo partly drawn) [drawing 455] cannot be ordered by CC50: greater than 200 µM for the first, greater than 200 µM for the second.

First: CC(C)OC(=O)[C@H](C)NP(=O)(OC[C@H]1O[C@@H](n2ccc(=O)[nH]c2=[Se])[C@](C)(O)[C@@H]1O)Oc1ccccc1 (stereo partly drawn)
Second: CC(C)OC(=O)[C@H](C)NP(=O)(OC[C@H]1O[C@@H](n2ccc(=O)[nH]c2=S)[C@](C)(O)[C@@H]1O)Oc1ccccc1 (stereo partly drawn) [drawing 453]
The CC50 of the first is higher: greater than 400 µM for the first, 98 µM for the second.

tested on: not listed separately; test: Cytotoxicity panel (CC50), IEC-6; format: cell-based; conditions: rat, iec-6 cells

`CC(C)OC(=O)[C@H](C)NP(=O)(OC[C@H]1O[C@@H](n2ccc(=S)[nH]c2=O)[C@](C)(F)[C@@H]1O)Oc1ccccc1` (stereo partly drawn) and `CC(C)OC(=O)[C@H](C)NP(=O)(OC[C@H]1O[C@@H](n2ccc(=S)[nH]c2=O)[C@](C)(O)[C@@H]1O)Oc1ccccc1` (stereo partly drawn) [drawing 455] cannot be ordered by CC50: greater than 400 µM for the first, greater than 400 µM for the second.

First: CC(C)OC(=O)[C@H](C)NP(=O)(OC[C@H]1O[C@@H](n2ccc(=O)[nH]c2=O)[C@](C)(O)[C@@H]1O)Oc1ccccc1 (stereo partly drawn)
Second: CC(C)OC(=O)[C@H](C)NP(=O)(OC[C@H]1O[C@@H](n2ccc(=O)[nH]c2=S)[C@](C)(O)[C@@H]1O)Oc1ccccc1 (stereo partly drawn) [drawing 453]
The CC50 of the first is lower: 80 µM for the first, greater than 200 µM for the second.

tested on: not listed separately; test: Cytotoxicity panel (CC50), H9c; format: cell-based; conditions: rat, h9c cells

`CC(C)OC(=O)[C@H](C)NP(=O)(OC[C@H]1O[C@@H](n2ccc(=S)[nH]c2=O)[C@](C)(F)[C@@H]1O)Oc1ccccc1` (stereo partly drawn) and `CC(C)OC(=O)[C@H](C)NP(=O)(OC[C@H]1O[C@@H](n2ccc(=S)[nH]c2=O)[C@](C)(O)[C@@H]1O)Oc1ccccc1` (stereo partly drawn) [drawing 455] cannot be ordered by CC50: greater than 400 µM for the first, greater than 200 µM for the second.

For `CC(C)OC(=O)[C@H](C)NP(=O)(OC[C@H]1O[C@@H](n2ccc(=O)[nH]c2=S)[C@](C)(O)[C@@H]1O)Oc1ccccc1` (stereo partly drawn) [drawing 453], the CC50 was greater than 200 µM.
